# Test results reported in US20120178782A1, “COMPOSITIONS AND METHODS FOR TREATING PROLIFERATIVE DISEASES” (priority 2009, published 2012).
# Legend:
# [1] = test system: MDA-MB-231; test: MTT cell proliferation assay, breast cancer cell line MDA-MB-231; assay type: cell-based, human; settings: single inhibitor, 72 hours culture; for minimum proliferation inhibitory concentration: FIG. 1C, 1F; for minimum inhibitory concentration (cell proliferation): FIG. 1
# Text: In the experiments described below, the cells used are human breast and colon cancer cell lines. The breast cancer cell lines were obtained from Lombarda Cancer Center, Georgetown University Medical Center. The breast cancer lines are cell lines called […] and Hs578T. These cells show a high rate of proliferation, absence of estrogen receptors, are capable of forming tumors in naked mice and show a highly aggressive phenotype. Both lines are used very frequently as breast cancer models. The colon cancer cell line is the cell line called SW620 that was originally isolated from the lymphatic nodules of a patient with colon adenocarcinoma.
# The cells are cultivated in polystyrene culture bottles (Corning, Corning, N.Y.). Both cell lines are kept in culture in DMEM medium (Dulbeco's Modified Tagle Medium, obtained from Gibco, Invitrogen Corporation, NY. USA) and supplemented with 10% fetal bovine serum (FBS) (obtained from PAA, GmbH Laboratories, Pasching, Austria), and supplemented with 100 U/ml of penicillin and 10 μg/ml of streptomycin (Gibco, Invitrogen Corporation, NY, USA) in incubator 37° C. In humidified atmosphere of […]/5% CO2.
# There were carried out curves of dose-cell proliferation inhibition response of the human breast cancer cell line MDA-MB-231, with the intent of objectively knowing the minimum concentrations that produce a proliferation inhibiting effect.
# In all the cases, the cell proliferation measurement was carried out using the MTT techniques of incorporation of Bromodeoxyuridine (BrdUr) (5-bromine-2′-deoxyuridine of Elisa Roche Applied Science, Mannheim, Germany) and the violet crystal coloration technique.
# The cells were cultivated in microplates (Orange Scientific) of 96 cavities in the amount of 4,000 cells per cavity in 200 ul of DMEM supplemented with FCS supplemented with 100 U/ml of penicillin and 10 ug/ml of streptomycin in incubator at 37° C. with atmosphere of […]/5% CO2. A the end of this period, the cells were cultivated for another 24 hours in culture medium in the absence of serum. At the end of this period, culture medium with scram in the absence (control) or presence of different inhibitors was added, in accordance with the following:
# The cells were kept in culture for 72 hours. Then, thiazol blue bromide reagent was added (3-(4,5-dimethylthiazol-[…])-2,5-diphenyltetrazolium bromide). It was incubated for 180 minutes at 37° C. After this time, the culture medium was discarded and the formazan crystals formed were dissolved with 200 ul of dimethylsulfoxide. The microplates were agitated for 15 minutes to dilute the crystals of homogeneous form, and absorbance was determined at 620 nm in a plate reader, “Biotra II, plate reader,” of Amersham Biosciences Inc., Piscataway, N.J., USA.
# [2] = biological target: T1, COX-2 enzyme (Homo sapiens, UniProt P35354); settings: plasma concentrations; cited from earlier work
# T1 sequence (P35354 18-604): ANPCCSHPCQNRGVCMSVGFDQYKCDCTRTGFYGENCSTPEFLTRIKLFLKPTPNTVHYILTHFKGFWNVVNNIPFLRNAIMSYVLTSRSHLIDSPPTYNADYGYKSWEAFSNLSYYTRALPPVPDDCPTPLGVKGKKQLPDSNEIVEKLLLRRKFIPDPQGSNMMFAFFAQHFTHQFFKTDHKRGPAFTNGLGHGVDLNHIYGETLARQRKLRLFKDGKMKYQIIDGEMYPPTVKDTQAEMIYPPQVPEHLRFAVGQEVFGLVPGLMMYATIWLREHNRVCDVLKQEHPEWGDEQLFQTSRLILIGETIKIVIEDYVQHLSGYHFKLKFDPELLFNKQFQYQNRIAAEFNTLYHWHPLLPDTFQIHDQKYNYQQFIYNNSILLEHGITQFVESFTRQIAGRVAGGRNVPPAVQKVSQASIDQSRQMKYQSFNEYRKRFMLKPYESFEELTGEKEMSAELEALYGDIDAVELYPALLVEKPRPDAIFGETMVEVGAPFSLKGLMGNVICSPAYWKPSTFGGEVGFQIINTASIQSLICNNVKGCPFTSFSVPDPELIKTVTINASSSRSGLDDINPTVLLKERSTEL
# [3] = test system: cells of the microvascular endothelium; settings: per se inhibitory doses of 75 μM; Kakiuchi-Kiyota et al. 2009; cited from earlier work
# [4] = test system: cell growth; settings: Min Yao et al. 2005; cited from earlier work
smiles,measurement,setting,value
Cc1ccc(-c2ncc(Cl)cc2-c2ccc(S(C)(=O)=O)cc2)cn1 [Etoricoxib],minimum proliferation inhibitory concentration,[1],1000 nM
"CC(=O)Oc1ccccc1C(=O)O [aspirin, acetylsalicylic acid]",plasma concentration inhibiting COX-2 enzyme,[2],greater than 0.5 mM
CN(CCOc1ccc(CC2SC(=O)NC2=O)cc1)c1ccccn1 (stereo not shown) [Rosiglitazone],minimum inhibitory concentration (cell proliferation),[1],75 µM
COc1cc(C(=O)NS(=O)(=O)c2ccccc2C)ccc1Cc1cn(C)c2ccc(NC(=O)OC3CCCC3)cc12 [Zafirlukast],minimum proliferation inhibitory concentration,[1],> 100 nM
Cc1c(C)c2c(c(C)c1O)CCC(C)(COc1ccc(CC3SC(=O)NC3=O)cc1)O2 (stereo not shown) [Troglitazone],minimum inhibitory concentration (cell proliferation),[1],75 µM
same,toxic effects on endothelial cells,[3],toxic effects were described
CC(C)Cc1ccc(C(C)C(=O)O)cc1 (stereo not shown) [Ibuprofen],minimum inhibitory concentration (cell proliferation),[1],500 µM
same,dose for cell growth inhibition,[4],at least 500 μM
"CC1=C(C)C(=O)C(CCCCC#CCCCC#CCO)=C(C)C1=O [AA861, Docebenone]",minimum inhibitory concentration (cell proliferation),[1],10 µM
CC(c1cc2ccccc2s1)N(O)C(N)=O (stereo not shown) [Zileuton],minimum inhibitory concentration (cell proliferation),[1],500 µM
